Test results published in ChEMBL document CHEMBL1140858, “Ceramicines B-D, new antiplasmodial limonoids from Chisocheton ceramicus” (Bioorg Med Chem, 2009).
Converted amounts (≈) assume the structure as drawn.

Assays:
[1] = tested on: P388; assay: Cytotoxicity against mouse P388 cells by MTT assay; format: cell-based
[2] = tested on: Plasmodium falciparum; assay: Antiplasmodial activity against Plasmodium falciparum 3D7 by Giemsa staining; format: functional, organism-based

| IC50 [2] | Structure (SMILES) | IC50 [1] |
| --- | --- | --- |
| 2.15 µg/mL (≈ 5.06 µM) | C[C@]12C3=CC[C@@H](C4=CCOC4=O)[C@]3(C)CC[C@@H]1[C@@]1(C)C(=O)C=C[C@@]3(C)CO[C@@H]([C@H]2O)[C@H]13 [CERAMICINES D] | 27 µg/mL (≈ 63.6 µM) |
| 2.38 µg/mL (≈ 4.83 µM) | C=C(C)C(=O)O[C@H]1C[C@H]2[C@](C)(C3=CC[C@@H](c4ccoc4)[C@@]31C)[C@H](O)[C@@H]1OC[C@]3(C)C=CC(=O)[C@@]2(C)[C@@H]13 [CERAMICINES C] | 5.5 µg/mL (≈ 11.2 µM) |
| 44.2 µg/mL (≈ 100 µM) | CC(=O)O[C@@H]1[C@H]2[C@@H](O)C=CC(=O)[C@]2(C)[C@H]2CC[C@]3(C)C(=CC[C@H]3c3ccoc3)[C@]2(C)[C@@H]1O [CERAMICINES A] |  |

| Structure (SMILES) | IC50 [2] | IC50 [1] |
| --- | --- | --- |
| C[C@]12C3=CC[C@@H](c4ccoc4)[C@]3(C)CC[C@@H]1[C@@]1(C)C(=O)C=C[C@@]3(C)CO[C@@H]([C@H]2O)[C@H]13 [CERAMICINES B] | 0.23 µg/mL (≈ 0.563 µM) | 15 µg/mL (≈ 36.7 µM) |
